Measurements taken from ChEMBL document CHEMBL1201862, “PubChem BioAssay data set” (2004).
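Test compounds were applied to cells in 96-well plates for 48 hours at 5 doses. GI50: concentration for 50% inhibition of growth.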 The source made the active and inactive calls. No stated cut-off is given here; in the data, active = GI50 up to about 1.1 µM and inactive = higher.

Assays:
Assay in all cases: NCI anticancer screen, dose series, 48 h
[1] = test system: UACC-257
[2] = test system: M14
[3] = test system: SK-OV-3
[4] = test system: Hs-578T
[5] = test system: MCF7
[6] = test system: CCRF-CEM
[7] = test system: SF-539
[8] = test system: SN12C
[9] = test system: T47D
[10] = test system: NCI-H23
[11] = test system: IGROV-1
[12] = test system: RPMI-8226
[13] = test system: MDA-MB-231
[14] = test system: UO-31
[15] = test system: SNB-19
[16] = test system: NCI-H522
[17] = test system: UACC-62
[18] = test system: KM12
[19] = test system: RXF 393
[20] = test system: SW-620

SMILES	GI50 [1]	GI50 [2]	GI50 [3]	GI50 [4]	GI50 [5]	GI50 [6]	GI50 [7]	GI50 [8]	GI50 [9]	GI50 [10]	GI50 [11]	GI50 [12]	GI50 [13]	GI50 [14]	GI50 [15]	GI50 [16]	GI50 [17]	GI50 [18]	GI50 [19]	GI50 [20]
Cc1ccc([N+](=O)[O-])c2c(NCCNC(=O)Cn3ccnc3[N+](=O)[O-])ccnc12	29.1 µM (inactive)	> 100 µM (inactive)	21.6 µM (inactive)	28.3 µM (inactive)	18.9 µM (inactive)	> 100 µM (inactive)	35.5 µM (inactive)	38.3 µM (inactive)	35.2 µM (inactive)	54.2 µM (inactive)	25.6 µM (inactive)	96.6 µM (inactive)	32 µM (inactive)	> 100 µM (inactive)	28.9 µM (inactive)	15.5 µM (inactive)	22.7 µM (inactive)	52.2 µM (inactive)	1.42 µM (inactive)	37.7 µM (inactive)
C=C(CN(C)C)C(=O)c1ccc(C)cc1C	9.51 µM (inactive)	5.93 µM (inactive)	18.5 µM (inactive)	26.1 µM (inactive)	3.3 µM (inactive)	0.574 µM (active)	12.7 µM (inactive)	11.8 µM (inactive)	3.31 µM (inactive)	10.6 µM (inactive)	7.23 µM (inactive)	1.16 µM (inactive)	13.3 µM (inactive)	12.2 µM (inactive)	32.7 µM (inactive)	2.9 µM (inactive)	10.5 µM (inactive)	15.9 µM (inactive)	4.51 µM (inactive)	2.74 µM (inactive)
C=CCN(c1cc(OC)c2[nH]c(C(=O)OCC)c(C)c2c1[N+](=O)[O-])S(C)(=O)=O	39.9 µM (inactive)	30.8 µM (inactive)	36.3 µM (inactive)	17.8 µM (inactive)	22.4 µM (inactive)	26.3 µM (inactive)	33.6 µM (inactive)	19.6 µM (inactive)	15.2 µM (inactive)	28.4 µM (inactive)	33.7 µM (inactive)	14.6 µM (inactive)	11 µM (inactive)	21.5 µM (inactive)	28.4 µM (inactive)	17.7 µM (inactive)	26.1 µM (inactive)	23.5 µM (inactive)	7.23 µM (inactive)	34.3 µM (inactive)
O=C1C2C(c3ccccc3)NC(c3ccccc3)C1C(c1ccccc1)NC2c1ccccc1 (stereo not given)	> 100 µM (inactive)	> 100 µM (inactive)	> 100 µM (inactive)	> 100 µM (inactive)	> 100 µM (inactive)	> 100 µM (inactive)	> 100 µM (inactive)	> 100 µM (inactive)	> 100 µM (inactive)	> 100 µM (inactive)	> 100 µM (inactive)	> 100 µM (inactive)	> 100 µM (inactive)	> 100 µM (inactive)	> 100 µM (inactive)	> 100 µM (inactive)	> 100 µM (inactive)	> 100 µM (inactive)	> 100 µM (inactive)	> 100 µM (inactive)
O=C(NC1(c2cc3ccccc3s2)CCCCC1)C1CCC1	> 100 µM (inactive)	> 100 µM (inactive)	> 100 µM (inactive)	37.1 µM (inactive)	> 100 µM (inactive)	> 100 µM (inactive)	23.1 µM (inactive)	> 100 µM (inactive)	> 100 µM (inactive)	> 100 µM (inactive)	> 100 µM (inactive)	> 100 µM (inactive)	69.5 µM (inactive)	> 100 µM (inactive)	> 100 µM (inactive)	> 100 µM (inactive)	> 100 µM (inactive)	> 100 µM (inactive)	> 100 µM (inactive)	> 100 µM (inactive)
Cc1nn(-c2ccccn2)c2c1C(SC#N)=C(C=O)CC2	5.12 µM (inactive)	15.8 µM (inactive)	19.3 µM (inactive)	33.7 µM (inactive)	10.5 µM (inactive)	2.12 µM (inactive)	19.1 µM (inactive)	18.5 µM (inactive)	4.05 µM (inactive)	16.4 µM (inactive)	11.5 µM (inactive)	13.3 µM (inactive)	18 µM (inactive)	14.6 µM (inactive)	19.6 µM (inactive)	19.5 µM (inactive)	5.71 µM (inactive)	16.7 µM (inactive)	5.16 µM (inactive)	13.7 µM (inactive)
C/C(=N\NC(=S)N1CCCCCC1)c1ccccn1	0.0128 µM (active)	0.0266 µM (active)	0.00665 µM (active)	0.322 µM (active)	0.0022 µM (active)	0.00383 µM (active)	0.0506 µM (active)	0.548 µM (active)	0.00438 µM (active)	0.00897 µM (active)	0.00162 µM (active)	0.00405 µM (active)	0.0249 µM (active)	0.543 µM (active)	0.0521 µM (active)	0.0624 µM (active)	0.00881 µM (active)	0.0258 µM (active)	0.553 µM (active)	0.0148 µM (active)
